Where “and” joins values, the source holds several entries; their conditions need not be identical. Equal entries are not always repeated.
Legend:
[1] = test system: β-glucosidase; assay: β-glucosidase cleavage of glucose-protected compounds (UV-Vis, HPLC, Km); format: biochemical, almonds; details: 37° C.
Description: Absorption spectra of compounds 1-8 were taken on a Perkin-Elmer Lambda 25 UV-visible spectrophotometer. To a 1.0 mL solution at 0.05-0.06 mM concentration in HEPES buffer (50 mM, pH 7.5) was added β-glucosidase (16 U for compounds 2, 4, and 6, and 100 U for compound 8). Spectra were monitored over time either at room temperature for compounds 1-7 or at 37° C. for compound 8.
To a 1.0 mL solution of 8 in HEPES buffer at 25 μM, 50 μM, 75 μM, 100 μM, and 200 μM was added 100 U of β-glucosidase. Spectra were monitored over 4 h at 37° C. The concentration of product formed, 1,2-HOPO-2 (7), was determined using the extinction coefficient for 7 calculated at 346 nm (4279±372 M-1 cm-1) and was plotted versus time (min). The initial velocity (ν) of each reaction was determined analyzing the linear slope of the first 50 min. The Km value was calculated from the Lineweaver-Burk plot (1/ν vs. 1/[8]) where −1/Km equals the x-intercept (FIG. 10).
Analytical HPLC was performed on a HP Series 1050 system equipped with a Vydac® C18 reverse phase column (218 TP, 250×4.6 mm, 5 μm). […] Retention times of compounds 1-8 were determined under identical HPLC conditions prior to evaluation of glucose cleavage of the protected compounds. […]

[2] = Acid stability in 0.1 M HCl (absorption spectra); format: physicochemical; details: 0.1 M HCl over 24 h
Description: To examine the stability of compound 8 towards acid hydrolysis, the absorption spectra of a 0.05 mM solution of 8 in a 0.1 M aqueous solution of HCl was collected. Spectra were collected at room temperature every hour for a 24 h time period. No change in the spectra was observed (FIG. 11).

[3] = target: T1, MMP-9 (catalytic domain, human, recombinant) (Homo sapiens, UniProt P14780); assay: MMP-9 fluorescence-based inhibition assay with and without β-glucosidase; format: biochemical
T1 construct: MMP-9 (catalytic domain, human, recombinant); purchased BIOMOL International
T1 sequence (P14780 107-444 limits assumed): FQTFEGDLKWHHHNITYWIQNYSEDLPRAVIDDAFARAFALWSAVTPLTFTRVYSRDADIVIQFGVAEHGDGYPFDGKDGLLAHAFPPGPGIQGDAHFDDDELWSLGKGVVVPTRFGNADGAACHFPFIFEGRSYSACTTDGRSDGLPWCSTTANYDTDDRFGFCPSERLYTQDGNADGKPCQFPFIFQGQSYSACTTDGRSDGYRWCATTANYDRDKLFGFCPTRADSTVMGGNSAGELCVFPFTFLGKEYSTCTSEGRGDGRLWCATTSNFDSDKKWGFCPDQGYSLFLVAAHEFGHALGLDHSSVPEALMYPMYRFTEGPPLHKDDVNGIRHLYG
Description: MMP-9 (catalytic domain, human, recombinant), MMP-8 (catalytic domain, human, recombinant), and the assay kit were purchased from BIOMOL International. The assays were carried out according to the procedure provided with the kit. MMP activity was measured in 96-well plates using a Bio-Tek Flx 800 fluorescent plate reader. The ZBGs and their protected analogs were dissolved in DMSO and diluted in HEPES buffer (50 mM, pH 7.5) to a concentration of 10 mM for 1-2, 40 mM for 3-4, and 1.25 mM for 5-6. Each well contained 20 μL, of MMP-9 (0.45 U/mL), inhibitor (10 μL, of 1-6), 5 μL, of β-glucosidase (1 U/μL) when used, and buffer for a total volume of 99 μL. These were incubated for 1 h at 37° C. […] The reaction was initiated by the addition of 1 μL (400 μM) of the fluorescent substrate (Mca-Pro-Leu-Gly-Leu-Dpa-Ala-Arg-NH2 where Mca=(7-methoxycoumarin-4-yl)-acetyl and Dpa=N-3-(2,4-dinitrophenyl)-L-α-β-diaminopropionyl)) and kinetic activity was measured every minute for 30 min with excitation and emission wavelengths at 335 nm and 405 nm, respectively. Enzyme activity with inhibitor was calculated with respect to the control experiment (no inhibitor present). Measurements were performed in duplicate in two independent experiments.
For Cmpds 7 and 8, 1 mL sample in HEPES buffer at a concentration of 1 mM was incubated at 37° C. with 250 U of β-glucosidase (1 U/μL) for 4 h giving a final concentration of 0.8 mM of the inhibitor. After 4 h, a 200 μL aliquot was collected and filtered through a microcentrifuge filter. UV-Vis absorption spectroscopy was to verify that the concentration of 1,2-HOPO-2 was 0.71±0.2 mM in each of the samples using the extinction coefficient for 1,2-HOPO-2 (7) calculated at 346 nm (4,279.3±372 M-1 cm-1). Each well was made up with 20 μL of MMP-9 (0.45 U/mL), inhibitor (2 μL, for 7 and 8), and buffer for a total volume of 99 μL. These were incubated for 30 min at 37° C. For MMP-8 inhibition assays, each of the samples was diluted to 1 μM in HEPES buffer and 15 μL of each were added to 20 μL of MMP-8 (0.092 U/mL) and buffer for a total of 99 μL. The reaction was initiated by the addition of 1 μL (400 μM) of the fluorescent substrate and kinetic activity was measured every minute for 30 min with excitation and emission wavelengths at 335 nm and 405 nm, respectively. Enzyme activity with inhibitor was calculated with respect to the control experiment (no inhibitor present). A control sample was also performed, in which an aliquot of 250 U of β-glucosidase (1 U/μL) with 1 mL of HEPES buffer was incubated for 4 h at 37° C., filtered through a microcentrifuge filter, and evaluated in the MMP assay to confirm that no inhibition is observed with β-glucosidase. Measurements were performed in duplicate in two independent experiments. […]

Km ([1]; 100 U β-glucosidase, Lineweaver-Burk plot): ~210 µM and 210 µM
time required for complete conversion of 8 to 7 ([1]; β-glucosidase): ~4 h
cleavage under acidic conditions [2]: not cleaved
inhibition at 16 µM ([3]; 16 μM, read-out: MMP-9 activity inhibited upon activation with β-glucosidase): 73%
inhibition of MMP-9 in the absence of β-glucosidase ([3]; 1 mM for 2, 4 mM for 4, 125 μM for 6, 16 μM for 8): very little inhibition
SMILES: O=C(NCc1ccc(-c2ccccc2)cc1)c1cccc(=O)n1O[C@@H]1O[C@H](CO)[C@@H](O)[C@H](O)[C@H]1O [Compound 8, N-(Biphenyl-4-ylmethyl)-6-oxo-1-(β-D-glucopyranosyloxy)-1,6-dihydropyridine-2-carboxamide]

Reference: patent publication US8889638B2, “Stimulus-triggered prodrugs” (The Regents of the University of California, priority 2010, dated 2014)
